Where a name gives a salt, the structure may show the parent alone.
Legend:
[1] = Headspace SPME GC/MS malodor removal by aqueous Composition 3 (butylamine); conditions: 0.5 wt. % activated alkene in Composition 3, pH 7, no catalyst; 2 hours room temperature, 30 minutes 35° C.; numbers less than 1 = reduced malodor
Protocol: (§1) All activated alkenes are present in Composition 3 in an amount of 0.5 wt. %, except PEG 400 Dimethylacrylate which is present in Composition 3 in amount of 1.0 wt. %.
(§2) In addition, a Control composition is prepared according to the composition in Table 3, except the activated alkene is omitted. Composition 3 with each activated alkene and the Control composition are then tested for malodor removal performance as described below.
(§3) n-Butanethiol and di-n-propoyl sulfide were chosen as chemical surrogates for sulfur-containing odors such as onion, garlic, sewage, etc. n-Butylamine was used as a representative for amine-containing odors such as fish, pet urine, etc.
(§4) 5 ml of Composition 3 and the Control composition are placed into a separate GC-MS vial and each spiked with 5 microliters of butanthiol or butylamine. The compositions are first equilibrated at room temperature for 2 hours, then incubated at 35° C. for 30 minutes. The headspace of each vial is finally sampled using a polydimethyl siloxane (“PDMS”)/SPME fiber and analyzed by GC/MS. The head space concentrations of odor molecules are measured and the data are normalized to the Control composition.
(§5) Numbers less than 1 denote reduced levels of malodor molecules present in the headspace of Composition 3 relative to the Control composition. The reduced malodor level is attributed to high malodor control efficacy of Composition 3.

[2] = Headspace SPME GC/MS malodor removal by aqueous Composition 3 (butanethiol); conditions: 0.5 wt. % activated alkene in Composition 3, pH 7, no catalyst; 2 hours room temperature, 30 minutes 35° C.; numbers less than 1 = reduced malodor
Protocol: as §1, §2, §3, §4, §5

[3] = Headspace SPME GC/MS butanethiol removal by aqueous Composition 5 (activated alkene and catalyst); conditions: for Butanethiol head space concentration normalized to Control, catalyst DBU / Butanethiol head space concentration normalized to Control, catalyst n-hexyl amine / Butanethiol head space concentration normalized to Control, catalyst n-octylamine: Composition 5, 0.5 wt. % activated alkene + catalyst, pH 7; for Butanethiol head space concentration normalized to Control, catalyst DBU: DBU 1:150 molar ratio of catalyst:alkene; for Butanethiol head space concentration normalized to Control, catalyst n-hexyl amine: n-hexyl amine 1:15 molar ratio of catalyst:alkene; for Butanethiol head space concentration normalized to Control, catalyst n-octylamine: n-octylamine 1:15 molar ratio of catalyst:alkene; for Butanethiol head space concentration normalized to Control, No catalyst: Composition 5, 0.5 wt. % activated alkene, pH 7, no catalyst
Protocol: [Worded in the source for another target; this target is reported under the same test.] as §4

[4] = Vapor-phase butanethiol removal, static headspace GC/MS; conditions: 1 μL sample in 10 mL vial, 30 minutes room temperature
Protocol: This example illustrates the malodor removal efficacy of exemplary activated alkenes-catalyst systems in the vapor phase. […] A 1 μL sample of each activated alkene-catalyst combination listed in Table 7 is pipeted into an individual 10 mL silanized headspace vial. The vials are sealed and allowed to equilibrate for at least 12 hours. This procedure is repeated 2 times for each sample. After the equilibration period, 1.5 mL of the target malodor standard vapor is injected into each 10 mL vial. For thiol analysis, the vials containing a sample+malodor standard are held at room temperature for 30 minutes. Then, a 1 mL headspace syringe is then used to inject 250 μL of each sample/malodor into a GC/MS split/splitless inlet. A GC pillow is used for the amine analysis to shorten the run times. Samples are then analyzed using a GC/MS with a DB-5, 20 m, 1 μm film thickness column with an MPS-2 autosampler equipment with static headspace function. Data is analyzed by ion extraction on each total ion current (56 for thiol) and the area is used to calculate the percent reduction from the malodor standard for each sample. Here, the results are reported as % reduction, and higher numbers represent higher reduction in butanethiol concentration.

[5] = benchmark values; cited from earlier work

Row | Compound | Butylamine head space concentration normalized to Control composition, Replicate 1 [1] | Butylamine head space concentration normalized to Control composition, Replicate 2 [1] | Butanethiol head space concentration normalized to Control composition, Replicate 1 [2] | Butanethiol head space concentration normalized to Control composition, Replicate 2 [2] | Butanethiol head space concentration normalized to Control, catalyst DBU [3] | Butanethiol head space concentration normalized to Control, catalyst n-hexyl amine [3] | Butanethiol head space concentration normalized to Control, catalyst n-octylamine [3] | Butanethiol head space concentration normalized to Control, No catalyst [3] | % reduction in butanethiol concentration, 1% w/w DBU [4] [%] | % reduction in butanethiol concentration, 1% w/w n-hexylamine [4] [%] | % reduction in butanethiol concentration, 1% w/w n-octylamine [4] [%] | % reduction in butanethiol concentration, No catalyst [4] [%] | ambient temperature water solubility (benchmark) [5] [g/100 ml]
1 | CC(C)=CCCC(C)=CC=O [Citral] | 0.0 | 0.0 | 0.1 | 0.1 |  |  |  |  |  |  |  |  | 
2 | C/C=C/C(=O)C1=C(C)C=CCC1(C)C [Damascenone] | 1.0 | 1.1 | 0.6 | 0.7 | 0.8 | 0.4 | 0.6 | 0.6 |  |  |  |  | 
3 | C/C=C/C(=O)C1C(C)C=CCC1(C)C (stereo not drawn) [Delta Damascone] |  |  |  |  |  |  |  |  | 99.6 | 30.7 | 24.4 | 21 | 
4 | CCOC(=O)/C=C/C(=O)OCC [Diethyl Fumarate] | 0.1 | 0.1 | 0.4 | 0.3 | 0.2 | 0 | 0 | 0.3 | 63 | 3.8 | 11.2 | 20.7 | 
5 | CCOC(=O)/C=C\C(=O)OCC [Diethyl Maleate] | 0.5 | 0.0 | 0.7 | 0.6 | 0.5 | 0.1 | 0.04 | 0.7 | 44.3 | 13.3 | 8.1 | 24.5 | 
6 | CCc1occc(=O)c1O [Ethyl Maltol] | 0.0 | 0.0 | 0.8 | 0.9 |  |  |  |  |  |  |  |  | 
7 | C=CC(=O)OCCCCCC [Hexyl Acrylate] | 0.6 | 0.5 | 0.1 | 0.1 | 0.2 | 0.02 | 0 | 0.1 | 23.1 | 11.2 | 21 | 31.9 | 
8 | C=CC(=O)N(C)C [N,N Dimethyl Acrylamide] | 1.0 | 1.0 | 0.8 | 0.8 | 0.3 | 0.6 | 0.7 | 0.8 |  |  |  |  | 
9 | O=C1C=CC(=O)N1C1CCCCC1 [N-Cyclohexylmaleimide] | 0.0 | 0.0 | 0.0 | 0.0 |  |  |  |  |  |  |  |  | 
10 | OC[C@H]1O[C@@H]2O[C@H]3[C@H](O)[C@@H](O)[C@@H](O[C@H]4[C@H](O)[C@@H](O)[C@@H](O[C@H]5[C@H](O)[C@@H](O)[C@@H](O[C@H]6[C@H](O)[C@@H](O)[C@@H](O[C@H]7[C@H](O)[C@@H](O)[C@@H](O[C@H]8[C@H](O)[C@@H](O)[C@@H](O[C@H]1[C@H](O)[C@H]2O)O[C@@H]8CO)O[C@@H]7CO)O[C@@H]6CO)O[C@@H]5CO)O[C@@H]4CO)O[C@@H]3CO [beta-cyclodextrin] |  |  |  |  |  |  |  |  |  |  |  |  | 1.8
11 | O=C1C=CC(=O)N1c1ccccc1 [n-phenylmaleimide] |  |  |  |  |  |  |  |  | 10 | 1.5 | 2.2 | 12.4 | 
12 | N,N dimethylacrylamide-4- methoxy phenol |  |  |  |  |  |  |  |  | 95.2 | 50 | 22.3 | 28.2 | 
13 | hydroxypropyl modified beta cyclodextrin |  |  |  |  |  |  |  |  |  |  |  |  | ≥ 60

— patent publication US20150093351A1, “MALODOR CONTROL COMPOSITIONS HAVING ACTIVATED ALKENES AND METHODS THEREOF” (The Procter & Gamble Company, priority 2012, published 2015)
